Converted amounts (≈) assume the structure as drawn. Read-outs that look alike come from different tables or passages of the source.
Legend:
CYP3A4 = conditions: cited from earlier work
HBV [1] = assay: HBV replication inhibition assay; assay type: cell-based, HBV genotype D; conditions: for activity at 10 µM: Hepatitis B virus, HepDES19, 72 h; for anti-HBV activity in words: initial screening, SAR discussion
HBV [2] = conditions: effective concentration 90%; cited from earlier work
[3] = tested on: HBV DNA, HBsAg and pregenomic RNA; conditions: after 28 days of treatment with GLS4; cited from earlier work
HCV genotype 1a = conditions: read-out: GT1a EC50; HCV NS5A inhibitors; cited from earlier work
HCV genotype 1b = conditions: read-out: GT1b EC50; HCV NS5A inhibitors; cited from earlier work

Structure (SMILES): C[C@@H](O[C@H]1OCCN(Cc2n[nH]c(=O)[nH]2)[C@H]1c1ccc(F)cc1)c1cc(C(F)(F)F)cc(C(F)(F)F)c1 [Aprepitant]
- CYP3A4 inhibition in words (CYP3A4): moderate CYP3A4 inhibitor

Structure (SMILES): Nc1ccn([C@@H]2CS[C@H](CO)O2)c(=O)n1 [Compound 3TC, lamivudine]
- activity at 10 µM (HBV [1]; read-out: Minus DNA (%) (10μM)): 54.6%
- activity at 10 µM (HBV [1]; read-out: Plus DNA (%) (10μM)): 16.2%

Structure (SMILES): CCOC(=O)C1=C(CN2CCC3(CCNC3)C2=O)NC(c2nccs2)=NC1c1ccc(F)cc1Br (stereo not drawn) [Compound 5b, ethyl 4-(2-bromo-4-fluorophenyl)-6-((1-oxo-2,7-diazaspiro[4.4]nonan-2-yl)methyl)-2-(thiazol-2-yl)-1,4-dihydropyrimidine-5-carboxylate]
- anti-HBV activity in words (HBV [1]): inactive

Structure (SMILES): CCOC(=O)C1=C(CN2CC3(CCNC3)CC2=O)NC(c2nccs2)=NC1c1ccc(F)cc1Br (stereo not drawn) [Compound 5c, ethyl 4-(2-bromo-4-fluorophenyl)-6-((3-oxo-2,7-diazaspiro[4.4]nonan-2-yl)methyl)-2-(thiazol-2-yl)-1,4-dihydropyrimidine-5-carboxylate]
- anti-HBV activity in words (HBV [1]): inactive

Structure (SMILES): CCOC(=O)C1=C(CN2CCC3(CCNC3)CC2)NC(c2nccs2)=NC1c1ccc(F)cc1Br (stereo not drawn) [Compound 5e, ethyl 6-((2,8-diazaspiro[4.5]decan-8-yl)methyl)-4-(2-bromo-4-fluorophenyl)-2-(thiazol-2-yl)-1,4-dihydropyrimidine-5-carboxylate]
- anti-HBV activity in words (HBV [1]): inactive

Structure (SMILES): CCOC(=O)C1=C(CN2CCC3(CCNC3)C2)NC(c2nccs2)=NC1c1ccc(F)cc1Br (stereo not drawn) [Compound 5i, ethyl 6-((2,7-diazaspiro[4.4]nonan-2-yl)methyl)-4-(2-bromo-4-fluorophenyl)-2-(thiazol-2-yl)-1,4-dihydropyrimidine-5-carboxylate]
- anti-HBV activity in words (HBV [1]): inactive or less potent

Structure (SMILES): CCOC(=O)C1=C(CN2CCOCC2)NC(c2nccs2)=N[C@H]1c1ccc(F)cc1Br [GLS4, Ethyl4-(2-bromo-4-fluorophenyl)-6-(morpholinomethyl)-2-(thiazol-2-yl)-1,4-dihydropyrimidine-5-carboxylate]
- EC90 (HBV [2]): 0.0557 µg/mL (≈ 0.109 µM)
- HBV DNA, HBsAg and pregenomic RNA in patients [3]: strong downward trend

Structure (SMILES): COC(=O)N[C@H](C(=O)N1CC2(CC2)C[C@H]1c1nc(-c2ccc3c(c2)C(F)(F)c2cc(-c4ccc5[nH]c([C@@H]6[C@H]7CC[C@H](C7)N6C(=O)[C@@H](NC(=O)OC)C(C)C)nc5c4)ccc2-3)c[nH]1)C(C)C [Ledipasvir]
- EC50 (HCV genotype 1a): 0.031 nM
- EC50 (HCV genotype 1b): 0.004 nM

Structure (SMILES): C[C@@H](OC[C@@]1(c2ccccc2)CC[C@]2(CCC(=O)N2)CN1)c1cc(C(F)(F)F)cc(C(F)(F)F)c1 [Rolapitant]
- CYP3A4 inhibition in words (CYP3A4): no inhibitory effect

Reference: article PMC10591454 (European journal of medicinal chemistry, 2021)
